Results on one compound are retold here after US10203334B2, “Methods and compositions related to nucleic acid binding assays” (Nubad, LLC, priority 2012, dated 2019).

The subject of the test is DNA triplex poly(dA).2poly(dT). Nature of the test: Competition dialysis. It counts as binding. An excerpt:
Disclosed is the use of fluorescent aminosugar probes such as F-neo (42a) to probe a variety of nucleic acid targets. Competition dialysis was used as a nucleic acid screening technique to illustrate the binding of F-neo (42a) to different nucleic acid structures.
Competition dialysis studies using a fluorescein-neomycin conjugate (F-neo (42a)). […] Comparative binding of F-neo (42a) to 13 different nucleic acid structures was examined which included single strand nucleic acids [poly(dT), poly(A), poly(U)], duplexes [poly(dA).poly(dT), poly(rA).poly(dT), poly(rA).poly(rU), poly(dA).poly(rU), poly(dG).poly(dC), calf thymus], triplexes [poly(dA).2poly(dT), poly(rA).2poly(rU)], i-motif (polydC) and 16S A-site rRNA (SEQ ID No. 1). The amount of F-neo (42a) bound to each nucleic acid is shown as a bar graph in FIG. 13. Because all nucleic acids are dialyzed simultaneously in the same ligand solution, the amount of bound F-neo (42a) is directly proportional to its affinity for each nucleic acid. […] 200 μL of different nucleic acids (7.5 μM per monomeric unit of each polymer) was dialyzed for 72 h with 400 mL 100 nM ligand in 6 mM Na2HPO4, 2 mM NaH2PO4, 1 mM Na2EDTA, pH 7.0 and various Na+ concentrations as indicated.
F-neo (42a) prefers to bind to 16S A-site rRNA yielding a bound ligand concentration of 85 nM in 100 mM Na^+, 50 nM in 150 mM Na^+, and 15 nM in 200 mM Na^+ is shown in FIG. 15. […]

Take `NCC1O[C@H](OC2C(O)C(OC3C(O)[C@H](N)CC(N)[C@H]3O[C@H]3OC(CN)[C@@H](O)C(O)C3N)O[C@@H]2CSCCNC(=O)CCSCC(=O)Nc2ccc(-c3c4ccc(=O)cc-4oc4cc(O)ccc34)c(C(=O)O)c2)C(N)C(O)[C@@H]1O` (some centres unmarked) [F-neo (42a), Neomycin-Fluorescein Conjugate]: the “binding to poly(dA).2poly(dT)” value (100 mM Na^+, ambient temperature (˜22° C.), triplex not formed) was “absence of F-neo (42a) binding”. The bound drug (under these salt conditions (100-200 mM Na^+)) lay within 10 to 20 nM.
